Results as given in patent US20070014736A1, “Methods of delivering corticotroph-derived glycoprotein hormone” (priority 2005, published 2007).

Key:
lipolysis in mice = test: Stimulation of lipolysis in vivo, serum glycerol and FFA; conditions: fasted mice, IP; CGH 300 μg/kg, CL 1 mg/kg
Procedure: CGH, the β3-adrenoreceptor agonist CL 316,243 (CL), and saline vehicle were examined for stimulation of lipolysis in mice following an overnight fast. […] Lipolysis was assessed as the percent change in serum glycerol or FFA over the 2 hour period. The serum glycerol and FFA for the vehicle groups decreased by 7%±9% and 24%±15%, respectively. The serum glycerol for the CGH group increased by 57%±20%; p=0.0254, and the FFA levels increased 25%±5%; p=0.0188.
C57 BL/6 male mice, age 19 weeks, were grouped to normalize weight (n=4 for each treatment; average group weight=37.8 g±0.4 g). Mice were housed individually for 18 hours prior to treatment, at which time food was withdrawn, with free access to water given. At approximately 8 a.m., the subjects were anesthetized with halothane and blood samples taken by retro-orbital eye bleed. The blood was allowed to clot, and the serum was separated by centrifugation and frozen for later analysis. Test substances were administered by IP injection in a volume of 0.1 ml, and the animals replaced in their cages for 2 hours with free access to water. At 2 hours, the mice were sacrificed and blood drawn by cardiac puncture.
For measuring free fatty acids in serum, the method previously described for measuring free fatty acids in conditioned media was followed, with the following modifications. Wako reagents A and B were reconstituted to 2× the recommended concentration. 75 μl of Wako reagent A were added to 5 μl of oleic acid standard plus 5 μl of water. 75 μl of Wako reagent A were added to 5 μl of serum plus 5 μl of methanol (to mirror the oleic acid standard conditions). The 96-well plates were incubated at 37° C. for 10 minutes. 150 μl of Wako reagent B were added to each well. The 96-well plates were incubated at 37° C. for 10 minutes. The 96-well plates were allowed to sit at room temperature for 5 minutes. The 96-well plates were centrifuged in a Beckman Coulter Allegra 6R centrifuge at 3250×g for 5 minutes to remove air bubbles. The absorbance at 530 nm was measured on the Wallac Victor2 Multilabel counter.
For measuring glycerol in serum, the method previously described for measuring glycerol in conditioned media was followed, with the modifications described below.
Sigma reagent A was reconstituted to 0.5× the recommended concentration. 200 μl of Sigma reagent A were added to 10 μl of glycerol standard. 200 μl of Sigma reagent A were added to 5 μl of serum plus 5 μI of water. The 96-well plates were incubated for 15 minutes at room temperature. The 96-well plates were centrifuged in a Beckman Coulter Allegra 6R centrifuge at 3250×g for 5 minutes to remove air bubbles. The absorbance at 530 nm was measured on the Wallac Victor2 Multilabel counter.

obese male ob/ob mice = test: Chronic 28-day treatment of ob/ob mice; type: in vivo
Procedure: Summary: CGH was administered daily for 28 days to obese male ob/ob mice. Mice were also treated with vehicle saline and thyroxine. Data was obtained for food intake, blood glucose, serum insulin, serum lipids, and serum thyroid hormone levels. At sacrifice, animals were examined for changes in liver pathology, and gross histology. […] Evaluation of liver histology sections was performed to examine the effect of CGH-mediated lipolysis on liver steatosis.
11-week old male ob/ob mice were individually caged and given a standard lab chow (4% fat) with free access to food and water. Animals were assigned to a treatment group (n=7−8, average weight 54.3±0.3 g/group), kept on a 12 hour dark cycle (6 PM to 6 AM), and injected each day between 7 and 9 AM. Chow consumed by each animal was weighed twice weekly. All animals received treatments IP in an injection volume of 0.1 ml. CGH was administered at 250 μg/kg, dissolved in sterile saline. Thyroxine (T4) was administered at 1.5 μg/mouse for 4 days, reduced to 1 μg/mouse for 10 days, and returned to 1.5 μg/mouse for the next 14 days. The vehicle controls received sterile saline. TSH was obtained from Genzyme Pharmaceuticals (Thyrogen®, Catalog number 36778; Genzyme Corporation, Cambridge, Mass.), and T4 obtained from Calbiochem, Inc. (EMD Biosciences, catalog number 61205, San Diego, Calif.) All blood draws were performed by retro-orbital puncture under isoflurane anesthesia.
After 25 days of treatment as described above, blood was sampled from all treated animals, serum separated, and analyzed for total T4 by a commercially available kit (Biocheck, Burlingame, Calif.). After 25 days of treatment, the vehicle T4 levels were 5.14±0.08 μg/dl. The CGH-treated group had T4 levels of 7.25±1.2 μg/dl, and the thyroxine-treated group had T4 levels of 9.04±0.47 μg/dl.
Subject animals were fasted for 4 hours at the beginning of the light cycle, and serum was obtained at treatment day 25 under isoflurane anesthesia. Serum Glucose levels were determined with the Cholestech LDX blood analyzer (Cholestech Corporation, Hayward Calif.), and serum insulin levels by ELISA. Serum glucose levels for vehicle and thyroxine treated groups were 306±22 and 295±23 mg/dl, respectively. […] Serum insulin levels for the vehicle and thyroxine treated groups were 33.5±1.8 and 25.9±1.7 ng/ml, respectively.
Subject animals were fasted for 4 hours at the beginning of the light cycle, and serum was obtained at treatment day 25 under isoflurane anesthesia. Triglyceride and total cholesterol levels were determined with the Cholestech LDX blood analyzer. Serum triglyceride levels for the vehicle controls were 143.7±23 mg/dl. […] Total cholesterol levels in the vehicle-treated and thyroxine-treated groups were 198±13 and 194±15 mg/dl, respectively.
Liver sections were dissected from all treatment groups described above and mounted in paraffin following fixation with NBS-formalin. Sections were mounted and stained with hematotoxylin and eosin (H&E) for visualization of hepatic structural changes. The extent of liver steatosis was evaluated on a four-point scale, from 0 to 3, with zero displaying no signs of liver steatosis, and a […], represented pronounced macrovesicular and microvesicular steatosis. […] Average scores given to the groups were vehicle (4), thyroxine (3), and CGH (1.5). […] The CGH treated sections appear to have regained hallmarks of normal hepatocyte architecture in only 28 days of treatment, with areas containing hepatocytes without lipid-laden inclusions in the cytoplasm of the cell.

[1] = tested on: LPS-induced mild endotoxemia mouse model; test: LPS-induced mild endotoxemia mouse model, serum cytokines; type: in vivo, mice; conditions: 2 mg/kg monomer, data not shown
Procedure: An in vivo experiment was designed to examine the effect of CGH in a mouse model of LPS-induced mild endotoxemia. This model mimics acute endotoxemia/sepsis by challenging mice with a low, non-lethal dose of bacterial endotoxin (lipopolysaccharide, LPS). Serum is collected at various timepoints (1-8 hours) after intraperitoneal LPS injection and analyzed for altered expression of a wide variety of pro- and anti-inflammatory cytokines and acute phase proteins that mediate the inflammatory response. The model provides a means to assess the potential anti-inflammatory effects of therapeutic candidates during a robust inflammatory response. To initially assess the model, we measured proinflammatory cytokines in a pilot experiment to collect reference data for the model.
C57B1/6 mice (Charles River Laboratories; 5 mice/group) were treated i.p. with PBS, 0.2 mg/kg CGH in PBS, or 2 mg/kg CGH in PBS 1 hour prior to LPS challenge. The mice were then challenged with 25 ug of LPS i.p. and bled at 1 hour and 4 hours after LPS injection. Serum was analyzed for TNF[…] (1 hour) and IL-6 (4 hours) levels by ELISA.
To determine if CGH would potentiate the effect of a sub-maximal dose of glucocorticoid, groups of 10 C57B1/6 mice each were treated i.p. with PBS, 0.15 or 1.5 mg/kg Dex, 2 mg/kg CGH, or a combination of CGH and low or high doses of Dex, 1 hour prior to injection of 25 ug LPS i.p. As shown in TABLE 3 (Expt #2), either 2 mg/kg CGH or 1.5 mg/kg Dex treatment alone (1 hour prior to LPS) caused a significant drop in serum TNFα levels at 1 hour, as observed in previous experiments. The effects of CGH administered in conjunction with Dex on inhibition of TNFα production were greater than either dose of Dex alone.

TSHR = test: Binding of 125I-CGH and 125I-TSH to BHK cells expressing the TSHR; parameters: species or system murine or human; conditions: increasing amounts of unlabeled protein
Procedure: BHK cells expressing murine or human TSHRs were cultured in Dulbecco's Modified Eagle's Medium [DMEM (high glucose)] containing 5% fetal bovine serum, 1% Glutamax, 1% sodium pyruvate, 250 nM methotrexate, and Geneticin ( 1/100). […] Plates of cells were placed on ice and washed twice with 1.0-2.0 ml of ice-cold PBS. […] Specific binding was determined in the presence (nonspecific binding) and absence (total binding) of unlabeled rhCGH (25.0 μg/ml) or TSH (10 μg/ml). Binding reactions were terminated by removing the binding medium and the cell monolayers were washed three times with 1.0-2.0 ml of ice-cold PBS containing 1.0 mg/ml BSA and twice with 1.0-2.0 ml of ice cold albumin-free PBS. Cells were solubilized in 1.0 ml of 1.0N NaOH for 10 min at room temperature and cell-associated radioactivity was determined in a gamma counter. The measured radioactivity was normalized to cell number that was determined on plates of cells cultured in parallel. Binding data were analyzed by non-linear regression using Prizm 3.0 (GraphPad Software, San Diego, Calif.).

C[C@H](Cc1ccc2c(c1)OC(C(=O)[O-])(C(=O)[O-])O2)NC[C@H](O)c1cccc(Cl)c1.[Na+].[Na+] [CL, CL 316,243, reference compound]
percent change (increase) in serum FFA over 2 hours (lipolysis in mice): 82%±16%
percent change (increase) in serum glycerol over 2 hours (lipolysis in mice): 168%±23%

N[C@@H](Cc1cc(I)c(Oc2cc(I)c(O)c(I)c2)c(I)c1)C(=O)O [thyroxine, reference compound]
liver steatosis average score (obese male ob/ob mice; H&E liver sections, 28 days, n=4): 3
serum total T4 levels (obese male ob/ob mice; after 25 days of treatment): 9.04 ± 0.47 µg/dL
Serum glucose levels (obese male ob/ob mice; day 25, fasted 4 hours): 295 ± 23 mg/dL
Serum insulin levels (obese male ob/ob mice; day 25, fasted 4 hours): 25.9 ± 1.7 ng/mL
Serum triglyceride levels (obese male ob/ob mice; day 25, fasted 4 hours): 198 ± 43 mg/dL
Total cholesterol levels (obese male ob/ob mice; day 25, fasted 4 hours): 194 ± 15 mg/dL
Food intake (obese male ob/ob mice; ob/ob mice, CGH 250 μg/kg IP daily, T4 1-1.5 μg/mouse): 6.1±0.17 grams/day of chow

B1: zlut1: beta subunit of CGH, glycoprotein hormone beta 5, previously called Zlut1 (protein)
chain: ASSGNLRTFVGCAVREFTFLAKKPGCRGLRITTDACWGRCETWEKPILEPPYIEAHHRVCTYNETKQVTVKLPNCAPGVDPFYTYPVAIRCDCGACSTATTECETI
effect on serum TNFα or IL-6 levels [1]: neither of these monomers had any effect
reduction of the amount of 125I-CGH bound by unlabeled competitor (TSHR): neither unlabeled rhTSH (FIG. 1C) nor unlabeled rhGPHA2 nor rhGPHB5 (data not shown) reduced the amount of ^125I-CGH bound

B2: zsig51: alpha subunit of CGH, glycoprotein hormone alpha2, previously called Zsig51 (protein)
chain: QEAVIPGCHLHPFNVTVRSDRQGTCQGSHVAQACVGHCESSAFPSRYSVLVASGYRHNITSVSQCCTISGLKKVKVQLQCVGSRREELEIFTARACQCDMCRLSRY
effect on serum TNFα or IL-6 levels [1]: neither of these monomers had any effect
reduction of the amount of 125I-CGH bound by unlabeled competitor (TSHR): neither unlabeled rhTSH (FIG. 1C) nor unlabeled rhGPHA2 nor rhGPHB5 (data not shown) reduced the amount of ^125I-CGH bound
